Test results: patent US10136645B2, “Antimicrobial composition” (MicroBio Solutions Inc., priority 2015, dated 2018)

Legend:
[1] = tested on: E. coli; assay: Minimal bactericidal time (MBT) at different contact times; type: cell-based; settings: 1000 active ppm H2O2 alone
Method: (§1) The antimicrobial effectiveness of the compositions of the present invention was tested. In this experiment, the test organism was E. coli and the final bacterial concentrations was 10^6 to 10^7 cfu/ml. Inoculum was contacted with either the combinations of LAE/H2O2 or individual, at different active concentration levels for a contact time of 30 seconds or more. The aliquots of this contaminated solution is used for determinate the minimal bactericidal concentration (MBC) for kill bacteria in the aliquots at 30 sec. contact time. Table 1 summarizes the efficacy of each biocide and their blends, and the Synergy index of each combination. In the same condition the minimal bactericidal time (MBT) was also evaluate with a combination of LAE:H2O2 (1:10) at different contact time. The table 2 summarizes the minimal bactericidal time for each biocide and a blend.

[2] = tested on: Bacillus subtilis (ATCC#19659) spores; assay: Sporicidal activity, quantitative suspension test EN 13704:2002; type: cell-based
Method: The sporicidal activity of a given product is defined by its capacity to reduce at least by 3 log (cfu/ml) the amount of Bacillus subtilis bacterial spores in suspension, in the conditions established in the method.
The test organism in the form of a test suspension was prepared containing endospores from Bacillus subtilis (ATCC#19659). The endospores were specifically prepared from a culture grown on Nutrient agar, to which additional sporulation enhancements were added. Plates were harvested with sterile water and endospores were purified by repeated centrifugations and resuspensions in water. The final wash was in 70% w/w ethanol for 30 minutes, to ensure the death of all vegetative bacteria.

[3] = tested on: B. subtilis spore; assay: Spore germination inhibition in TSB with low concentration solution; type: cell-based, Bacillus subtilis; settings: low concentration solution (1:200 dilution); 30° C., 72 hours, visible growth
Method: The spore contaminated media culture was then incubated at 30° C. for 72 hours for detect the germination of the spore by the presence of a visually detectable growth. Three replicates were completed per treatment.

[4] = tested on: E. coli; assay: Minimal bactericidal concentration (MBC) at 30 sec. contact time; type: cell-based; settings: alone or in blend, 10^6 to 10^7 cfu/ml
Method: as §1

[5] = animal toxicological studies; cited from earlier work
[6] = tested on: E. coli on raw chicken piece; assay: Efficacy and residual growth inhibition on inoculated raw chicken pieces; type: cell-based
Source text: In the following example it is shown the residual effect of a combination of LAE/H2O2 compared with peracetic acid (PAA). The peracetic acid is often used in the food industry to sanitize food (fruit, vegetables, meat and poultry). The peracetic acid has a strong odor, is highly reactive and unstable when diluted and its use is limited to 80 ppm on food in the majority of countries worldwide regulation (e.g. US-FDA regulation 21CFR). For this example a solution of 200 ppm of lauric arginate with 1000 ppm of hydrogen peroxide is prepared and acidified to pH 2.5 using citric acid. The peracetic acid used is provided by Sigma-Aldrich.
Raw chicken pieces of the same size and weight are first soaked in an inoculating solution containing E. coli and incubated 30 minutes at 30° C. to allow the adhesion of bacteria on the surfaces of the sample. All samples are then soaked in a disinfectant solution (LAE/H2O2 or PAA) or a control (water) for a period of 30 seconds followed by a drying period drip for 2 minutes. Three replicates were completed per treatment. After the treatment, the samples were submerged in a neutralizing growth medium (D/E Neutralizing Broth) to analyze the populations of E. coli after the treatment or stored at room temperature in a sterile bags 24 hours before analyzed for populations of E. coli.

In the case of OO [Example H2O2, hydrogen peroxide], the MBT [1] is reported as >5 min, the “Average Log 10 cfu/ml reduction after 10 minutes contact time” value ([2]; high concentration treatment solution (10% H2O2)) is reported as >3 Log 10 cfu/ml and the “Spore germination inhibition activity” value [3] is reported as “No inhibition”.
For CCCCCCCCCCCC(=O)N[C@@H](CCCN=C(N)N)C(=O)OCC [LAE, Lauric arginate ethyl ester], the “MBC (active ppm) H2O2” value ([4]; H2O2 concentration for complete kill) was 5000 active ppm, the “MBC (active ppm) LAE” value ([4]; LAE concentration for complete kill) was >350 active ppm and the sporicidal activity ([2]; LAE alone, result not shown) was “no significant difference with the control”. The “systemic No Observable Adverse Effect Levels (NOAEL)” value [5] was 15,000 mg/L.
For CC(=O)OO [PAA, peracetic acid], the “Average Log10 cfu/sample 2 min. after treatment” value ([6]; 30 seconds soak, 2 min drip drying, LAE/H2O2 200/1000 ppm pH 2.5) was 0.56 Log10 cfu/sample, the “Log10 reduction vs control 2 min. after treatment” value ([6]; 30 seconds soak, LAE/H2O2 200/1000 ppm pH 2.5, PAA 80 ppm) was 3.81 Log10 and the “Average Log10 cfu/sample 24 hours after treatment” value ([6]; stored 24 hours at room temperature, LAE/H2O2 200/1000 ppm, PAA 80 ppm) was 2.51 Log10 cfu/sample.
